# Experimental data from patent publication US20240123079A1 (Seagen Inc., priority 2021, published 2024).
# Assay: In vivo cytokine assay, plasma of Renca tumor-bearing mice
# Design: species or system mouse; IFNg production in plasma / IL-1b production in plasma / IL-6 production in plasma / IL12p70 production in plasma / IP10 production in plasma / MIP1a production in plasma / MIP1b production in plasma / TNFa production in plasma: unit not given here
# Protocol: Cytokines were measured in mouse plasma harvested at 3, 6, 24, or 48 hours after treatment with compounds or ADCs using a Milliplex MAP mouse cytokine/chemokine magnetic bead panel assay kit (MCYTOMAG-70k custom 11-plex kit: MCP1, MIP1α, MIP1β, TNFα, IFNγ, IL-10, IL-12p70, IL-6, IL-1β, IP10, RANTES) and analyzed using a Luminex™ MAGPIX™ Instrument System. Values that were outside of the standard curve range (<3.2 or […]) were excluded from calculation of the mean values.
compound,measurement,setting,value
CCn1nc(C)cc1C(=O)Nc1nc2cc(C(N)=O)cc(OC)c2n1C/C=C/Cn1c(NC(=O)c2cc(C)nn2CC)nc2cc(C(N)=O)cc(OCCCNC)c21 [Compound 12a],IFNg production in plasma,"0.2 mg/kg, dose #1, 3 h",<3.2
same,IL12p70 production in plasma,"0.2 mg/kg, dose #1, 3 h",<3.2
same,IL-1b production in plasma,"0.2 mg/kg, dose #1, 3 h",0.7
same,IL-6 production in plasma,"0.2 mg/kg, dose #1, 3 h",780.0
same,IL-10 production in plasma,"0.2 mg/kg, dose #1, 3 h",15.6
same,IP10 production in plasma,"0.2 mg/kg, dose #1, 3 h",1989.6
same,MCP-1 production in plasma,"0.2 mg/kg, dose #1, 3 h",333.3
same,MIP1a production in plasma,"0.2 mg/kg, dose #1, 3 h",10.3
same,MIP1b production in plasma,"0.2 mg/kg, dose #1, 3 h",727.2
same,RANTES production in plasma,"0.2 mg/kg, dose #1, 3 h",<3.2
same,TNFa production in plasma,"0.2 mg/kg, dose #1, 3 h",9.1
same,IFNg production in plasma,"0.2 mg/kg, dose #1, 6 h",4.6
same,IL12p70 production in plasma,"0.2 mg/kg, dose #1, 6 h",<3.2
same,IL-1b production in plasma,"0.2 mg/kg, dose #1, 6 h",0.7
same,IL-6 production in plasma,"0.2 mg/kg, dose #1, 6 h",266.1
same,IL-10 production in plasma,"0.2 mg/kg, dose #1, 6 h",<3.2
same,IP10 production in plasma,"0.2 mg/kg, dose #1, 6 h",8985.4
same,MCP-1 production in plasma,"0.2 mg/kg, dose #1, 6 h",7790.8
same,MIP1a production in plasma,"0.2 mg/kg, dose #1, 6 h",101.9
same,MIP1b production in plasma,"0.2 mg/kg, dose #1, 6 h",670.7
same,RANTES production in plasma,"0.2 mg/kg, dose #1, 6 h",130.3
same,TNFa production in plasma,"0.2 mg/kg, dose #1, 6 h",8.1
same,IFNg production in plasma,"0.2 mg/kg, dose #1, 24 h",<3.2
same,IL12p70 production in plasma,"0.2 mg/kg, dose #1, 24 h",<3.2
same,IL-1b production in plasma,"0.2 mg/kg, dose #1, 24 h",3.2
same,IL-6 production in plasma,"0.2 mg/kg, dose #1, 24 h",4.1
same,IL-10 production in plasma,"0.2 mg/kg, dose #1, 24 h",<3.2
same,IP10 production in plasma,"0.2 mg/kg, dose #1, 24 h",257.9
same,MCP-1 production in plasma,"0.2 mg/kg, dose #1, 24 h",53.0
same,MIP1a production in plasma,"0.2 mg/kg, dose #1, 24 h",<3.2
same,MIP1b production in plasma,"0.2 mg/kg, dose #1, 24 h",<3.2
same,RANTES production in plasma,"0.2 mg/kg, dose #1, 24 h",3.2
same,TNFa production in plasma,"0.2 mg/kg, dose #1, 24 h",3.2
same,IFNg production in plasma,"0.2 mg/kg, dose #1, 48 h",<3.2
same,IL12p70 production in plasma,"0.2 mg/kg, dose #1, 48 h",<3.2
same,IL-1b production in plasma,"0.2 mg/kg, dose #1, 48 h",0.7
same,IL-6 production in plasma,"0.2 mg/kg, dose #1, 48 h",5.6
same,IL-10 production in plasma,"0.2 mg/kg, dose #1, 48 h",<3.2
same,IP10 production in plasma,"0.2 mg/kg, dose #1, 48 h",172.8
same,MCP-1 production in plasma,"0.2 mg/kg, dose #1, 48 h",56.8
same,MIP1a production in plasma,"0.2 mg/kg, dose #1, 48 h",10.3
same,MIP1b production in plasma,"0.2 mg/kg, dose #1, 48 h",<3.2
same,RANTES production in plasma,"0.2 mg/kg, dose #1, 48 h",<3.2
same,TNFa production in plasma,"0.2 mg/kg, dose #1, 48 h",4.3
same,IFNg production in plasma,"0.2 mg/kg, dose #2, 6 h",16.5
same,IL12p70 production in plasma,"0.2 mg/kg, dose #2, 6 h",<3.2
same,IL-1b production in plasma,"0.2 mg/kg, dose #2, 6 h",2.7
same,IL-6 production in plasma,"0.2 mg/kg, dose #2, 6 h",410.9
same,IL-10 production in plasma,"0.2 mg/kg, dose #2, 6 h",1.2
same,IP10 production in plasma,"0.2 mg/kg, dose #2, 6 h",>10000
same,MCP-1 production in plasma,"0.2 mg/kg, dose #2, 6 h",5244.6
same,MIP1a production in plasma,"0.2 mg/kg, dose #2, 6 h",104.9
same,MIP1b production in plasma,"0.2 mg/kg, dose #2, 6 h",718.6
same,RANTES production in plasma,"0.2 mg/kg, dose #2, 6 h",133.8
same,TNFa production in plasma,"0.2 mg/kg, dose #2, 6 h",10.0
same,IFNg production in plasma,"0.6 mg/kg, dose #1, 3 h",<3.2
same,IL12p70 production in plasma,"0.6 mg/kg, dose #1, 3 h",<3.2
same,IL-1b production in plasma,"0.6 mg/kg, dose #1, 3 h",0.7
same,IL-6 production in plasma,"0.6 mg/kg, dose #1, 3 h",1899.7
same,IL-10 production in plasma,"0.6 mg/kg, dose #1, 3 h",30.4
same,IP10 production in plasma,"0.6 mg/kg, dose #1, 3 h",4826.2
same,MCP-1 production in plasma,"0.6 mg/kg, dose #1, 3 h",1547.8
same,MIP1a production in plasma,"0.6 mg/kg, dose #1, 3 h",251.5
same,MIP1b production in plasma,"0.6 mg/kg, dose #1, 3 h",2471.0
same,RANTES production in plasma,"0.6 mg/kg, dose #1, 3 h",20.1
same,TNFa production in plasma,"0.6 mg/kg, dose #1, 3 h",21.0
same,IFNg production in plasma,"0.6 mg/kg, dose #1, 6 h",18.3
same,IL12p70 production in plasma,"0.6 mg/kg, dose #1, 6 h",3.1
same,IL-1b production in plasma,"0.6 mg/kg, dose #1, 6 h",5.7
same,IL-6 production in plasma,"0.6 mg/kg, dose #1, 6 h",424.0
same,IL-10 production in plasma,"0.6 mg/kg, dose #1, 6 h",3.8
same,IP10 production in plasma,"0.6 mg/kg, dose #1, 6 h",8828.3
same,MCP-1 production in plasma,"0.6 mg/kg, dose #1, 6 h",12898.6
same,MIP1a production in plasma,"0.6 mg/kg, dose #1, 6 h",137.2
same,MIP1b production in plasma,"0.6 mg/kg, dose #1, 6 h",1050.0
same,RANTES production in plasma,"0.6 mg/kg, dose #1, 6 h",255.0
same,TNFa production in plasma,"0.6 mg/kg, dose #1, 6 h",15.6
same,IFNg production in plasma,"0.6 mg/kg, dose #1, 24 h",<3.2
same,IL12p70 production in plasma,"0.6 mg/kg, dose #1, 24 h",<3.2
same,IL-1b production in plasma,"0.6 mg/kg, dose #1, 24 h",1.6
same,IL-6 production in plasma,"0.6 mg/kg, dose #1, 24 h",6.1
same,IL-10 production in plasma,"0.6 mg/kg, dose #1, 24 h",<3.2
same,IP10 production in plasma,"0.6 mg/kg, dose #1, 24 h",381.8
